Assay results from US20150185215A1, “Cell-Based Assays For Post-Translational Enzyme Activity” (Cell Assay Innovations, Inc., priority 2012, published 2015).

Molecular target: lck (Homo sapiens, UniProt P06239)
Experiment: cell-based

Chain of lck (P06239 whole entry): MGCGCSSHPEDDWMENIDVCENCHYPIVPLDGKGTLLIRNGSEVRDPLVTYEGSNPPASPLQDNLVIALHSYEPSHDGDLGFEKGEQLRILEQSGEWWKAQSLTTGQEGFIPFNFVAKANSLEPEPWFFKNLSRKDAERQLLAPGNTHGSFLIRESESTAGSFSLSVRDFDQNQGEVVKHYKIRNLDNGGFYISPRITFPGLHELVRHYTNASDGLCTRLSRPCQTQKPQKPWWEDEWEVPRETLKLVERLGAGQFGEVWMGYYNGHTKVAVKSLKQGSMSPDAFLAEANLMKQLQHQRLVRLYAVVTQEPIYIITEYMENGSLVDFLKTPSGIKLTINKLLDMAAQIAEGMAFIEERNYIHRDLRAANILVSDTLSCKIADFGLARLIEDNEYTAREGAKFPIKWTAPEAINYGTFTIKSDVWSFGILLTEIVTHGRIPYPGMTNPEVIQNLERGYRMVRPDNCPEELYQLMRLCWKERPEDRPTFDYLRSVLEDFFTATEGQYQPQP

SMILES: N#CC(=C(/N)Sc1ccccc1N)/C(C#N)=C(\N)Sc1ccccc1N [U0126]
- IC50: > 30 µM
